{"source": "patent US7723063B2", "about": "“Methods for measuring levels of bioactive human hepcidin” (Intrinsic Lifesciences, priority 2004, dated 2010)", "key": {"[1]": {"test": "Aggregation of bioactive hepcidin in phosphate buffered saline", "assay_type": "physicochemical", "conditions": "pH 7.4", "excerpt": "Development of bass hepcidin enzyme/ligand conjugates for ELISA. We took advantage of the only available (N-terminal) primary amine group present in refolded bass hepcidin for conjugation to KLH using EDC (1-Ethyl-3-[3-Dimethylamino-propyl] carbodiimide HCl) and DSS (Disuccinimidyl suberate) chemistries. These approaches were very difficult to develop and apply to production of hepcidin conjugates due to hepcidin's inherent solubility issues in higher pH coupling buffers. […] We have encountered significant issues when trying to solubilize hepcidin at the higher concentrations (1-3 mg ml^−1) in standard coupling buffers desirable for production of high activity, soluble hepcidin-HRP conjugates for ELISA."}, "[2]": {"test": "Serum hepcidin after IP injection of synthetic bass hepcidin, competitive ELISA", "assay_type": "in vivo", "conditions": "HSB", "procedure": "Competition ELISA Protocol. A high-binding 96-well microplate (Corning, Inc., Cat. No. 3590) was coated with 100 μl of a 1:5,000 dilution of affinity-purified rabbit anti-HSB hepcidin antibody (0.68 mg/ml) in carbonate-bicarbonate coating buffer pH 9.6 (Sigma-Aldrich Corp., Cat. No. C-3041). One well contained 100 μl carbonate-bicarbonate coating buffer and no antibody. The plate was covered and placed at 4°C. Following a suitable period of incubation at 4° C., the plate was washed with three, 300 μl volumes of PBS-T (PBS containing 0.05% TWEEN-20™). Next, the plate was blocked with 250 μl of a 2% (w/v) dry milk solution in PBS, covered, and incubated for one hour at RT, shaking at 150 rpm. Samples and standard curves were prepared in a separate 96-well plate. Serum, plasma, and urine samples were diluted with PBS diluted to be within the working range of the standard curve. An aliquot of biotinylated AEEAc-derivatized hepcidin (0.21 mg/ml diluted 1:2000) was added to each well to give a final biotinylated hepcidin concentration of 94.5 ng/ml. From each well of the sample/standard curve dilution plate, 100 μl was transferred to the antibody coated and blocked plate. The plate was covered and incubated at RT, shaking at 150 rpm, for 1 hour to allow competitive binding to occur. […] Absorbance at 450 nm was determined using a THERMOMAX™ microplate reader with SOFTMAX PRO™ software (Molecular Devices). Data were analyzed using a spreadsheet program. […]\nThe data from these studies is separated by double lines. […] The second data set is from a field study Production Tank 32, where HSB without apparent clinical disease ‘Clinically Healthy’ and “Infected/Moribund” HSB were sampled and their serum hepcidin levels determined (Rows 4-5). […] The fourth experiment is a clinical where the indicated quantities of synthetic, bioactive, bass hepcidin was injected IP and measured in their serum at the indicated timepoints (Rows 8-11). […]"}, "Yersinia enterocolitica": {"tested_on": "Yersinia enterocolitica", "test": "Microbicidal kinetics", "assay_type": "cell-based", "procedure": "Microbicidal Kinetics. An experiment was conducted to examine the microbicidal kinetics of bass hepcidin and to compare its killing activity to another bass antimicrobial peptide, moronecidin. Moronecidin is a 22 amino acid, linear, amphipathic α-helical peptide which was originally co-purified from the gill of HSB with hepcidin. […] We compared the killing kinetics of hepcidin and moronecidin against Y enterocolitica at 30 min intervals over a 3 h time period using 2× their MIC concentrations for this organism (44 and 10 μM; FIG. 12). The bactericidal activities of the peptides were assessed by plating cultures and counting CFUs after overnight incubation at 37° C."}, "spores of A. niger": {"tested_on": "spores of A. niger", "test": "Germination and fungicidal assay", "assay_type": "cell-based", "conditions": "48 hr exposure, re-culture in fresh medium", "protocol": "Germination and Fungicidal Assay. Spores of A. niger were harvested and resuspended in sterile water containing 0.05% TWEEN-80™, and the concentration adjusted to approximately 10^8 spores per ml. Spores were diluted in half-strength PDB containing 16 μM chloramphenicol to a final concentration of 10^5 spores per ml. Ninety μl of the suspension was placed in sterile flat-bottomed polystyrene 96-well plates with 10 μl of serial dilutions of peptide (440 μM, 220 μM, 110 μM, 55 μM), in water. Germination of spores was allowed to proceed for 2 days at 30° C. in the dark, after which hyphae density was measured by absorbance at 600 nm. After 2 days of incubation, the contents of wells showing no germination were centrifuged for 3 min at 5000 rpm, resuspended in 50 μl of fresh PDB media, and triplicate aliquots spotted onto PDB agar plates. Plates were placed at 30° C. for 3 days to monitor germination of hyphae. The absence of germination indicated fungicidal activity.\nFungicidal Activity. […] After 48 hr exposure to the respective peptides, spores were removed and cultured in fresh medium and examined 48 h later for growth."}, "S. iniae": {"tested_on": "S. iniae", "procedure": "(§1) Antimicrobial Synergism Studies. Synergism between synthetic bass hepcidin and moronecidin was tested in checkerboard liquid growth inhibition assays. In brief, two-fold serial dilutions of each peptide were made in water, and 10 μl of the solution added to the bottom of the wells of a 96-well plate. Ninety μl of exponential phase bacterial cultures (OD600˜0.2) were freshly diluted in culture media to ˜2×10^5 CFU ml^−1 and added to peptide solutions. Controls consisted of wells with the appropriate volume and concentration of each peptide alone, or of water. Bacterial viability was assayed at 2 h by plating aliquots of the bacterial suspension for CFU enumeration. The bacterial suspensions were further incubated overnight at 37° C. and bacterial growth was monitored by optical density at 600 nm for determination of MIC. Synergistic activity was quantify as fractional inhibition concentration (FIC) index=([A]/MICA)+([B]/MICB), where MICA and MICB are the MICs of the peptides alone and [A] and [B] are the MICs of A and B when used together.\n(§2) To test for synergism between the two antimicrobial peptides in vitro, we conducted liquid growth inhibition/killing experiments with a Gram-positive (S. iniae) and a Gram-negative bacterium (Y enterocolitica) using varying concentrations of the two synthetic peptides. The bacteria were cultured in the presence of synthetic bass hepcidin and moronecidin and plated after 2 h incubation at 37° C. for determination of CFU (FIG. 14)."}, "HSB erythrocytes": {"tested_on": "HSB erythrocytes", "test": "Hemolytic activity", "assay_type": "cell-based, striped bass", "procedure": "Hemolytic activity. Freshly packed striped bass erythrocytes (3 ml) isolated from young fingerlings (˜30 g) and adult fish (˜300 g) were washed with phosphate-buffered saline (PBS; pH 7.4) until the supernatant was colorless and resuspended in PBS (30 ml) supplemented with glucose (0.2%, w/v). Synthetic bass hepcidin (10 μl of 880-55 μM) was added to 90 μl of a 1% suspension of washed erythrocytes in microcentrifuge tubes. Triplicate samples were incubated for 30, 90, 180, and 240 min at 37° C. then centrifuged for 10 min at 3500 rpm. Supernatant from the erythrocyte suspension (70 μl) was placed in a microtiter plate and optical density at 405 nm determined. The percentage of hemolysis in hepcidin-treated erythrocytes was expressed relative to hemolysis obtained with a control erythrocyte suspension treated with 0.1% sodium dodecyl sulphate (SDS, 100% hemolysis).\nHemolytic Activity. The hemolytic activity of bass hepcidin was tested with erythrocytes from HSB. […] Greater than 98% of the bass erythrocytes exposed to 44 μM hepcidin for 3 h at 37° C. remained intact. This exposure corresponds to a time point when 96% of Y. enterocolitica exposed to 44 μM hepcidin have been killed (see FIG. 6, Panel A). After 4 h incubation with 44 μM hepcidin, more than 97% of the erythrocytes remained intact. No hemolysis was observed after 4 h at hepcidin concentrations of 11 μM and lower."}, "[3]": {"test": "Direct binding to ferric iron by NMR", "excerpt": "Instead, hepcidin has shown to have the capability of exerting its effects on the innate immune response of teleosts through a combination of activities. The bass model employed in these studies provides a powerful approach to further elucidate hepcidin function(s), including it potential role in hypoferremia in teleosts."}, "Y. enterocolitica": {"tested_on": "Y. enterocolitica", "procedure": "as §1, §2"}}, "note": "Ends that are not written are not given here. Peptide text beside a SMILES is read from it.", "data": [{"molecule": "CSCC[C@@H]1NC(=O)[C@H](CC(N)=O)NC(=O)[C@@H]2CCCN2C(=O)[C@@H]2CSSC[C@@H]3NC(=O)[C@H](C(C)C)NC(=O)CNC(=O)[C@H](CSSC[C@@H]4NC(=O)[C@H](CSSC[C@H](NC(=O)[C@H](CC(N)=O)NC4=O)C(=O)N2)NC(=O)[C@H](Cc2ccccc2)NC(=O)[C@H](CCCNC(=N)N)NC(=O)[C@@H](NC(=O)CN)CSSC[C@@H](C(=O)N[C@@H](CCCNC(=N)N)C(=O)N[C@@H](Cc2ccccc2)C(=O)O)NC3=O)NC(=O)CNC(=O)[C@H](CO)NC1=O", "note": "[bass hepcidin] (HELM PEPTIDE1{G.C.R.F.C.C.N.C.C.P.N.M.S.G.C.G.V.C.C.R.F}$PEPTIDE1,PEPTIDE1,2:R3-19:R3|PEPTIDE1,PEPTIDE1,5:R3-8:R3|PEPTIDE1,PEPTIDE1,6:R3-15:R3|PEPTIDE1,PEPTIDE1,9:R3-18:R3$$$V2.0; N-terminus and C-terminus assumed)", "values": [{"measurement": "Concentration at which it readily aggregates", "setting": "[1]", "result": 0.05, "unit": "µg/mL"}, {"measurement": "level at 3 h", "setting": "[2]; 50 ug, 50 μg IP", "result": 39.3, "unit": "µg/mL"}, {"measurement": "level at 3 h", "setting": "[2]; 300 ug, 300 μg IP", "result": 204, "unit": "µg/mL"}, {"measurement": "level at 6 h", "setting": "[2]; 2 × 300 μg IP (0 and 3 h), sampled 6 h", "result": 230, "unit": "µg/mL"}, {"measurement": "Time required for 90% reduction of CFU from the original inoculum", "setting": "Yersinia enterocolitica; 44 μM", "result": "Two and half hours"}, {"measurement": "State of cultures at 30 min", "setting": "Yersinia enterocolitica; 22 and 44 μM", "result": "actually growing"}, {"measurement": "MIC", "setting": "Yersinia enterocolitica; Y. enterocolitica", "result": 22, "unit": "µM"}, {"measurement": "Fungicidal concentration", "setting": "spores of A. niger", "result": 44, "unit": "µM"}, {"measurement": "Antimicrobial activity against S. iniae", "setting": "S. iniae; 2 h incubation, concentrations as high as 88 μM", "result": "no detectable antimicrobial activity"}, {"measurement": "Hemolytic activity", "setting": "HSB erythrocytes; 5.5 μM, 30 min., 37° C.", "result": "0% of controls"}, {"measurement": "Hemolytic activity", "setting": "HSB erythrocytes; 5.5 μM, 90 min.", "result": "0% of controls"}, {"measurement": "Hemolytic activity", "setting": "HSB erythrocytes; 5.5 μM, 180 min.", "result": "0% of controls"}, {"measurement": "Hemolytic activity", "setting": "HSB erythrocytes; 11 μM, 30 min.", "result": "0% of controls"}, {"measurement": "Hemolytic activity", "setting": "HSB erythrocytes; 11 μM, 90 min.", "result": "0% of controls"}, {"measurement": "Hemolytic activity", "setting": "HSB erythrocytes; 11 μM, 180 min.", "result": "0% of controls"}, {"measurement": "Hemolytic activity", "setting": "HSB erythrocytes; 22 μM, 30 min.", "result": "0% of controls"}, {"measurement": "Hemolytic activity", "setting": "HSB erythrocytes; 22 μM, 90 min.", "result": "0% of controls"}, {"measurement": "Hemolytic activity", "setting": "HSB erythrocytes; 22 μM, 180 min.", "result": "0.4 ± 0.15% of controls"}, {"measurement": "Hemolytic activity", "setting": "HSB erythrocytes; 22 μM, 240 min.", "result": "0.4 ± 0.4% of controls"}, {"measurement": "Hemolytic activity", "setting": "HSB erythrocytes; 44 μM, 30 min.", "result": "0% of controls"}, {"measurement": "Hemolytic activity", "setting": "HSB erythrocytes; 44 μM, 90 min.", "result": "0% of controls"}, {"measurement": "Erythrocytes remaining intact", "setting": "HSB erythrocytes; 44 μM, 3 h, 37° C.", "result": "Greater than 98%"}, {"measurement": "Hemolytic activity", "setting": "HSB erythrocytes; 44 μM, 180 min.", "result": "1.4 ± 0.3% of controls"}, {"measurement": "Erythrocytes remaining intact", "setting": "HSB erythrocytes; 44 μM, 4 h", "result": "more than 97%"}, {"measurement": "Hemolytic activity", "setting": "HSB erythrocytes; 44 μM, 240 min.", "result": "2.5 ± 1.2% of controls"}, {"measurement": "Hemolysis", "setting": "HSB erythrocytes; 4 h, 11 μM and lower", "result": "No hemolysis"}, {"measurement": "Direct binding to ferric iron", "setting": "[3]", "result": "no evidence"}]}, {"molecule": "FFHHIFRGIVHVGKTIHKLVTG-NH2 (C-terminus assumed) [moronecidin, reference compound]", "values": [{"measurement": "Decrease in CFU", "setting": "Yersinia enterocolitica; 10 μM (2× MIC), after 30 min", "result": 90, "unit": "%"}, {"measurement": "Fungicidal concentration", "setting": "spores of A. niger", "result": 10, "unit": "µM"}, {"measurement": "MIC", "setting": "S. iniae", "result": 2.5, "unit": "µM"}, {"measurement": "MIC", "setting": "Y. enterocolitica", "result": 5, "unit": "µM"}, {"measurement": "MIC", "setting": "E. coli", "result": 5, "unit": "µM"}]}]}
